One test deals with V599E Raf (Homo sapiens, UniProt P15056, V600E). The experiment in a line: Biochemical FRET assay, mutant Raf (phosphorylation of MEK). The following applies: 0.125 nM V599E Raf, 100 nM biotin-MEK, 25 μM ATP, read-out: Raf (mut) inhibition. As to the method:
(1) Biochemical FRET Assay […]
Inhibitors were diluted 4-fold in 100% DMSO and added to a final concentration of 10 μM to 40 μM to a solution containing 100 nM biotin-MEK, 0.125 nM V599E Raf in 50 mM HEPES, pH 7.4, 60 mM NaCl, 3 mM MgCl2, 2 mM DTT, 0.25 mM MnCl2, 0.01% BSA, and 0.01% Tween-20 and incubated for 20 minutes at room temperature. The kinase reaction was started by the addition of 25 μM ATP to a final volume of 45 μl and allowed to progress for 60 minutes. The reaction was stopped with 15 mM EDTA and 20 nM Streptavidin-APC, 2.5 nM Polyclonal anti p-MEK1/2 (Ser217/221), 2.5 nM Eu-labeled anti-rabbit IgG were added in Lance detection buffer and 5% Superblock in PBS for a final volume of 100 μl. The detection reaction was incubated for 90 minutes at room temperature and then read on an Analyst plate reader using standard TR-FRET (time resolved fluorescence resonance energy transfer) settings for Eu and APC.
Compounds having an activity designated as “A” provided an IC50≦100 nM; compounds having an activity designated as “B” provided an IC50 of 100-1000 nM; and compounds having an activity designated as “C” provided an IC50 of 1000-10,000 nM.

In test [1] the test system is phospho-ERK in melanoma derived WM-266-4 cells. The experiment in a line: Mechanistic cellular assay for Raf kinase activity (phospho-ERK, Bio-Plex). It counts as cell-based. The following applies: Homo sapiens, treated 1-2 hr at 37° C., serum free medium, read-out: pERK EC50. An outline of the steps: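 WM-266-4 melanoma cells (wild-type/V600D BRaf) grown overnight in 10% FBS RPMI, then treated 1–2 h at 37 °C in serum-free RPMI with eight 3-fold dilutions of compound (from 5 mM DMSO stock, 1000× dilution). Lysate phospho-ERK1,2 quantified by Bio-Plex bead immunoassay.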

V599E Raf, sequence (P15056 whole entry V600E): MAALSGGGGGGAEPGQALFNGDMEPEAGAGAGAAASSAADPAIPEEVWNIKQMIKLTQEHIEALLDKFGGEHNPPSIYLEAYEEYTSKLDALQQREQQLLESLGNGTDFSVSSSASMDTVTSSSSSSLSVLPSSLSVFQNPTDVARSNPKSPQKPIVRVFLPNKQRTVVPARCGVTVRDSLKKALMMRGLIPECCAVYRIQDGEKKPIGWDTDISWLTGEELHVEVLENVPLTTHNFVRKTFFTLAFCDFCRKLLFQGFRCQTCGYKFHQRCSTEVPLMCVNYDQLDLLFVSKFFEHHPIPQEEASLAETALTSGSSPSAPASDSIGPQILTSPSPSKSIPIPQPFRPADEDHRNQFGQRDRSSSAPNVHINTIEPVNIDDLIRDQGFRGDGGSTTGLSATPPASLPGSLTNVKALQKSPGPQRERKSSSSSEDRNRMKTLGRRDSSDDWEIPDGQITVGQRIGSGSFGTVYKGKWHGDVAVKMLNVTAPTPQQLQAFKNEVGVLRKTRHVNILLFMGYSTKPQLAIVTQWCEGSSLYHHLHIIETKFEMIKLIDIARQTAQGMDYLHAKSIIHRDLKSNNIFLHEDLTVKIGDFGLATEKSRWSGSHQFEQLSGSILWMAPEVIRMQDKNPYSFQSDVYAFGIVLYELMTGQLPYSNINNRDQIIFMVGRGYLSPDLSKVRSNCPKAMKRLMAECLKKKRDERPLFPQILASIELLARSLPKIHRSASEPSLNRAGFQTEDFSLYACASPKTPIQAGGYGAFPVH

What is called EC50 is the concentration giving half of the maximal effect. On to `CC(=O)Nc1cccc(C(=O)N[C@H](C)c2ncc(C(=O)Nc3cc(C(F)(F)F)c(Cl)cn3)s2)n1` [Example 93], for which, on V599E Raf, the IC50 fell in the range of 100 to 1000 nM. In test [1], the EC50 is 1000 to 10000 nM.

For `C[C@@H](NC(=O)c1cccc(N2CCCCC2)n1)c1ncc(C(=O)Nc2cc(C(F)(F)F)c(Cl)cn2)s1` [Example 94], the IC50 at V599E Raf lay in the range of 100 to 1000 nM. Besides, the EC50 in test [1] was in the range of 1000 to 10000 nM.

Regarding `C[C@@H](NC(=O)c1cscn1)c1ncc(C(=O)Nc2cc(C(F)(F)F)c(Cl)cn2)s1` [Example 95], at V599E Raf, the IC50 is at most 100 nM. For the same compound, in test [1], the EC50 is 1000 to 10000 nM.

As to `Cc1scnc1C(=O)N[C@H](C)c1ncc(C(=O)Nc2cc(C(F)(F)F)c(Cl)cn2)s1` [Example 96], the IC50 at V599E Raf is at most 100 nM. For the same compound, in test [1], the EC50 lay in the range of 1000 to 10000 nM.

Regarding `C[C@@H](NC(=O)c1csc(-c2ccncc2)n1)c1ncc(C(=O)Nc2cc(C(F)(F)F)c(Cl)cn2)s1` [Example 97], the IC50 at V599E Raf is at most 100 nM. In addition, the EC50 in test [1] lay in the range of 1000 to 10000 nM.

Turning to `C[C@@H](NC(=O)c1csc(N)n1)c1ncc(C(=O)Nc2cc(C(F)(F)F)c(Cl)cn2)s1` [Example 98], the IC50 on V599E Raf was at most 100 nM. The EC50 in test [1] lay within 1000 to 10000 nM.

Consider `Cc1ncsc1C(=O)N[C@H](C)c1ncc(C(=O)Nc2cc(C(F)(F)F)c(Cl)cn2)s1` [Example 99], for which the IC50 at V599E Raf was at most 100 nM. In test [1], the EC50 lay in the range of 1000 to 10000 nM.

In the case of `Cc1nc(C)c(C(=O)N[C@H](C)c2ncc(C(=O)Nc3cc(C(F)(F)F)c(Cl)cn3)s2)s1` [Example 101], the IC50 at V599E Raf was at most 100 nM. Besides, the EC50 in test [1] lay within 1000 to 10000 nM.

With `Cc1ncoc1C(=O)N[C@H](C)c1ncc(C(=O)Nc2cc(C(F)(F)F)c(Cl)cn2)s1` [Example 103], at V599E Raf, the IC50 is at most 100 nM. The EC50 in test [1] was 1000 to 10000 nM.

On to `C[C@@H](NC(=O)c1cnc(N2CCN(C)CC2)s1)c1ncc(C(=O)Nc2cc(C(F)(F)F)c(Cl)cn2)s1` [Example 106], for which, at V599E Raf, the IC50 was at most 100 nM. Moreover, the EC50 in test [1] was in the range of 1000 to 10000 nM.

On to `C[C@@H](NC(=O)c1cn[nH]c1-c1ccccc1)c1ncc(C(=O)Nc2cc(C(F)(F)F)c(Cl)cn2)s1` [Example 107], for which, on V599E Raf, the IC50 was at most 100 nM. Moreover, the EC50 in test [1] is 100 to 1000 nM.

Turning to `CC(NC(=O)c1cnn(C)c1N)c1cnc(Nc2ccc(C(F)(F)F)cc2)s1` (stereo not shown) [Example 108], the IC50 at V599E Raf is at most 100 nM. Further, in test [1], the EC50 fell in the range of 100 to 1000 nM.

As for `CC(NC(=O)c1cnn(C)c1)c1cnc(Nc2ccc(C(F)(F)F)cc2)s1` (stereo not shown) [Example 109], the IC50 at V599E Raf was at most 100 nM. Moreover, the EC50 in test [1] lay in the range of 1000 to 10000 nM.

On to `Cc1nn(C)c(C)c1C(=O)N[C@H](C)c1ncc(C(=O)Nc2cc(C(F)(F)F)c(Cl)cn2)s1` [Example 110], for which the IC50 on V599E Raf was at most 100 nM. The EC50 in test [1] was 1000 to 10000 nM.

In the case of `Cc1n[nH]c(C)c1C(=O)N[C@H](C)c1ncc(C(=O)Nc2cc(C(F)(F)F)c(Cl)cn2)s1` [Example 111], on V599E Raf, the IC50 was at most 100 nM. The EC50 in test [1] fell in the range of 1000 to 10000 nM.

Regarding `C[C@@H](NC(=O)c1cnn(Cc2ccccc2)c1)c1ncc(C(=O)Nc2cc(C(F)(F)F)c(Cl)cn2)s1` [Example 118], the IC50 at V599E Raf was at most 100 nM. Also, in test [1], the EC50 was in the range of 1000 to 10000 nM.

As to `C[C@@H](NC(=O)c1cnn(-c2ccccn2)c1)c1ncc(C(=O)Nc2cc(C(F)(F)F)c(Cl)cn2)s1` [Example 119], the IC50 at V599E Raf is at most 100 nM. In addition, the EC50 in test [1] was 1000 to 10000 nM.

Consider `C[C@@H](NC(=O)c1cnn(-c2ccccc2)c1N)c1ncc(C(=O)Nc2cc(C(F)(F)F)c(Cl)cn2)s1` [Example 121], for which, at V599E Raf, the IC50 fell in the range of 100 to 1000 nM. Moreover, the EC50 in test [1] fell in the range of 100 to 1000 nM.

`Cc1nn(C)cc1C(=O)N[C@H](C)c1ncc(C(=O)Nc2cc(C(F)(F)F)c(Cl)cn2)s1` [Example 123]: the IC50 on V599E Raf was in the range of 100 to 1000 nM. Moreover, the EC50 in test [1] lay within 1000 to 10000 nM.

With `CCc1[nH]ncc1C(=O)N[C@H](C)c1ncc(C(=O)Nc2cc(C(F)(F)F)c(Cl)cn2)s1` [Example 125], the IC50 at V599E Raf was in the range of 100 to 1000 nM. For the same compound, the EC50 in test [1] was 100 to 1000 nM.

For the compound `CCn1ncc(C(=O)N[C@H](C)c2ncc(C(=O)Nc3cc(C(F)(F)F)c(Cl)cn3)s2)c1C` [Example 126], the IC50 on V599E Raf was at most 100 nM. Further, the EC50 in test [1] was at most 100 nM.

On to `C[C@@H](NC(=O)c1cnn(C)c1N)c1ncc(C(=O)Nc2cc(C(F)(F)F)c(Cl)cn2)s1` [Example 127], for which the IC50 on V599E Raf was at most 100 nM. Also, in test [1], the EC50 is at most 100 nM.

Regarding `C[C@@H](NC(=O)c1cnn(C)c1CN1CCCCC1)c1ncc(C(=O)Nc2cc(C(F)(F)F)c(Cl)cn2)s1` [Example 128], on V599E Raf, the IC50 was in the range of 100 to 1000 nM. Further, the EC50 in test [1] is 100 to 1000 nM.

`CNCc1c(C(=O)N[C@H](C)c2ncc(C(=O)Nc3cc(C(F)(F)F)c(Cl)cn3)s2)cnn1C` [Example 129]: the IC50 at V599E Raf was 1000 to 10000 nM. The EC50 in test [1] lay within 1000 to 10000 nM.

For the compound `C[C@@H](NC(=O)c1cnn(C)c1CN1CCC(F)(F)C1)c1ncc(C(=O)Nc2cc(C(F)(F)F)c(Cl)cn2)s1` [Example 130], the IC50 at V599E Raf was 100 to 1000 nM. Besides, in test [1], the EC50 fell in the range of 100 to 1000 nM.

Turning to `C[C@@H](NC(=O)c1cnn(C)c1CNCCF)c1ncc(C(=O)Nc2cc(C(F)(F)F)c(Cl)cn2)s1` [Example 131], the IC50 at V599E Raf was 100 to 1000 nM. Further, in test [1], the EC50 was in the range of 100 to 1000 nM.

With `C[C@@H](NC(=O)c1cnn(C)c1CN1CCCC1)c1ncc(C(=O)Nc2cc(C(F)(F)F)c(Cl)cn2)s1` [Example 132], the IC50 at V599E Raf is 100 to 1000 nM. The EC50 in test [1] was 100 to 1000 nM.

Turning to `C[C@@H](NC(=O)c1cnn(C)c1CNC1CC1)c1ncc(C(=O)Nc2cc(C(F)(F)F)c(Cl)cn2)s1` [Example 133], on V599E Raf, the IC50 was 100 to 1000 nM. In test [1], the EC50 lay within 100 to 1000 nM.

Regarding `CC(C)n1cc(C(=O)N[C@H](C)c2ncc(C(=O)Nc3cc(C(F)(F)F)c(Cl)cn3)s2)cn1` [Example 134], on V599E Raf, the IC50 is 100 to 1000 nM. The EC50 in test [1] was in the range of 100 to 1000 nM.

With `C[C@@H](NC(=O)c1nc(NC(=O)OC(C)(C)C)cn1C)c1ncc(C(=O)Nc2cc(C(F)(F)F)c(Cl)cn2)s1` [Example 138], on V599E Raf, the IC50 lay within 100 to 1000 nM. For the same compound, the EC50 in test [1] is 1000 to 10000 nM.

`COCCn1c(C(=O)NC(C)c2cnc(Nc3ccc(C(F)(F)F)cc3)s2)cnc1C` (stereo not shown) [Example 140]: the IC50 at V599E Raf is at most 100 nM. For the same compound, in test [1], the EC50 is 1000 to 10000 nM.

Turning to `C[C@@H](NC(=O)c1cn(-c2ccncc2)cn1)c1ncc(C(=O)Nc2cc(C(F)(F)F)c(Cl)cn2)s1` [Example 148], the IC50 on V599E Raf was at most 100 nM. Besides, the EC50 in test [1] was 1000 to 10000 nM.

For the compound `C[C@@H](NC(=O)c1cnc(C#N)n1C)c1ncc(C(=O)Nc2cc(C(F)(F)F)c(Cl)cn2)s1` [Example 150], the IC50 on V599E Raf is at most 100 nM. Further, the EC50 in test [1] lay within 1000 to 10000 nM.

As for `CCCNc1ncc(C(=O)N[C@H](C)c2ncc(C(=O)Nc3cc(C(F)(F)F)c(Cl)cn3)s2)n1C` [Example 153], the IC50 at V599E Raf fell in the range of 100 to 1000 nM. Moreover, the EC50 in test [1] lay in the range of 1000 to 10000 nM.

For `C[C@@H](NC(=O)c1cnc(CN2CCCC2)n1C)c1ncc(C(=O)Nc2cc(C(F)(F)F)c(Cl)cn2)s1` [Example 155], the IC50 on V599E Raf was at most 100 nM. For the same compound, in test [1], the EC50 lay in the range of 1000 to 10000 nM.

As for `C[C@@H](NC(=O)c1cnc(CN2CCOCC2)n1C)c1ncc(C(=O)Nc2cc(C(F)(F)F)c(Cl)cn2)s1` [Example 156], at V599E Raf, the IC50 is at most 100 nM. Further, the EC50 in test [1] was in the range of 1000 to 10000 nM.

For the compound `C[C@@H](NC(=O)c1cnc2n1CCCN2C)c1ncc(C(=O)Nc2cc(C(F)(F)F)c(Cl)cn2)s1` [Example 167], the IC50 on V599E Raf is at most 100 nM. In test [1], the EC50 was in the range of 100 to 1000 nM.

As to `CCn1cnc2cnc(C(=O)N[C@H](C)c3cnc(Nc4ccc(C(F)(F)F)cc4)cn3)cc21` [Example 174], the IC50 at V599E Raf was at most 100 nM. Further, in test [1], the concentration for a half-maximal effect (EC50) is at most 100 nM.

Values taken from patent US20120040951A1, “HETEROARYL COMPOUNDS USEFUL AS RAF KINASE INHIBITORS” (priority 2008, published 2012).
